Data as given in patent US20220152045A1 (priority 2012, published 2022).
Like-named read-outs stand apart in the source and are kept apart here.

How the values were obtained:
[1] = system: surgery patients at the age of 20 or older and younger than 65; conditions: in vivo
[2] = system: surgery patients at the age of 65 or older; conditions: in vivo
[3] = system: surgery patients at the age of 65 or older; conditions: in vivo; remark: listed apart in the source
[4] = system: patients; assay: Clinical trials of the Examples taken together (85 cases of patients in total); conditions: dosing regimen of the invention, amount per kg equal to or more than in the preceding animal tests
[5] = system: surgery patients at the age of 20 or older and younger than 65; conditions: in vivo; remark: listed apart in the source
[6] = system: non-human animal (for example, a monkey); assay: Continuous intravenous administration to a non-human animal, vasostimulant; type: in vivo; conditions: continuous i.v. 1 mg/kg/h to 2 mg/kg/h for several hours (4 to 6 hours), in the neighborhood of an effective dose
From the text: It can be said that this is an astonishingly excellent effect provided by the dosing regimen of the invention.

COC(=O)CC[C@@H]1N=C(c2ccccn2)c2cc(Br)ccc2-n2c(C)cnc21.O=S(=O)(O)c1ccccc1 [Compound B, Methyl 3-[(4S)-8-bromo-1-methyl-6-(2-pyridinyl)-4H-imidazo[1,2-a][1,4]benzodiazepin-4-yl]propanoate benzenesulfonate]
Number of test subjects who developed hypotension, adverse event ([1]; human): 3 patients | Proportion of test subjects who developed hypotension as a side effect ([1]; human): 10% | Average time until the patient opened eyes [1]: 13.9 min | Average time until the patient stated the date of birth [1]: 21.5 min | Average time until the patient were allowed to leave the surgery room [1]: 25.5 min | Average time until the trachea was extubated [1]: 16.4 min | Other side effects to be concerned or abnormal laboratory data [1]: not observed | Recollection during anesthesia ([1]; 1 mg/kg): no recollection | Salvage treatment for sedation during surgery ([1]; 1 mg/kg): without performing a salvage treatment | Signs of awakening during the surgery ([1]; 1 mg/kg): not observed | Completion rate of endotracheal intubation ([1]; 12 mg/kg): 100% | Time until loss of consciousness (range of actual values) ([1]; 12 mg/kg): (48-120) sec | Number of test subjects who developed hypotension, adverse event ([2]; human): 3 Patients | Proportion of test subjects who developed hypotension as a side effect ([2]; human): 20% | Average time until the patient opened eyes [2]: 10.9 min | Average time until the patient stated the date of birth [2]: 18.5 min | Average time until the patient were allowed to leave the surgery room [2]: 19.1 min | Average time until the trachea was extubated [2]: 13.6 min | Other side effects to be concerned or abnormal laboratory data [2]: not observed | Recollection during anesthesia ([2]; 1 mg/kg): no recollection | Salvage treatment for sedation during surgery ([2]; 1 mg/kg): without performing a salvage treatment | Signs of awakening during the surgery ([2]; 1 mg/kg): not observed | Completion rate of endotracheal intubation ([2]; 4 mg/kg): 100% | Time until loss of consciousness (range of actual values) ([2]; 4 mg/kg): (70-135) sec | Completion rate of endotracheal intubation [3]: 100% | Other side effects to be concerned or abnormal laboratory data [3]: not observed | Vasostimulant [4]: does not cause the vasostimulant | Other side effects to be concerned or abnormal laboratory data [5]: not observed | Vasostimulant [6]: vasostimulant is observed
